The source of these data is patent publication US6465259B1, “Non radioactive receptor assay suitable for quantitative and qualitative analysis of trace amounts of receptor binding analyte” (Merska B.V., priority 1999, dated 2002).

Assay [1] has as its system benzodiazepine receptor. Briefly: Fluorescent binding assay, saturation experiments with FLB. The conditions noted are these: free initial concentration of 15 nM. Set-up: species or system calf. Here is the method: (§1) Calf brains, obtained from the slaughtcrhouse and stored at −80° C. after discarding the cerebellum, were homogenized in 6 volunmes (w/v) of ice-cold 0.32 M sucrose in a Potter-Elvehjem homogenizer (RW 20 DZW. Janke & Kunkel K G, Staufen i. Breisgau, Germany) fitted with a teflon pestle and centrifuged for 10 min at 1,000 ×g in a Beckman L8-55 Ulcracentrifuge (Beckman Instruments, Mijdrecht, The Netherlands). The supernatant was centrifuged for 60 min at 100,000×g. The resulting pellet (P2) was resuspended in sodium phosphate buffer (pH 7.4; 50 mM) and centrifuged for 30 min at 100,000×g. This washing step was repeated four times. All operations were performed at 4° C. The washed P2-pellet was resuspended in 5 volumes (w/v) phosphate buffer, frozen with liquid nitrogen and lyophilized (Hetosicc CD 52-1, Heto, Birkerød, Denmark) . rhe lyophilized P2-pellet was stored at −20° C. For the receptor binding assays, the lyophilized P2-pellet was resuspended in Tris-HCl buffer (pH 7.4; 50 mM) with the glass-teflon Potter homogenizer (3.5 mg/inl).
(§2) For the saturation experiments, 25 μl FLB solution (0.5-50 nM final concentration) in Tris-HCl buffer (pH 7.4; 50 mM) were pipetted in duplicate in the wells of the filtration plate after pre-wetting the filters. […] To this mixture, 200 μl of the receptor suspension (225 μg protein per assay) were added and the plate was shaken for 1 min. […] Hundred μl of the filtrates were analyzed with the above described HPLC-method.
(§3) The saturation and inhibition curves for both the radioactive labeled benzodiazepine [^3H]flunitrazepam and the fluorescent labeled benzodiazepine. […] The specific binding was calculated by subtracting the non-specific binding from the total binding. […] The Bmax value was calculated to be 3.42±0.01 nM, which corresponds to 3.84±0.09 pM/mg protein. […] After binding of BD 623 to the receptor, the fluorescence intensity is decreased and from the level of fluorescence quenching the amount of bound BD 623 can be estimated. […]

Assay [2] relates to T1, benzodiazepine receptor.
T1 construct: IC50; other: FLB as labeled ligand, 7.3 nM; Bmax; other: saturation with FLB; other: [3H]flunitrazepam as labeled ligand, 2.2 nM; other: FLB assay concentration 7.3 nM; recov
The description is as above. The arrangement: species or system calf. The method, then: as §1, §2, §3

Assay [3] concerns the target T1, benzodiazepine receptor. Briefly: Radioligand binding assay with [3H]flunitrazepam. The arrangement: species or system calf. Here is the method: as §1, with “The washed P2-pellet was resuspended in 5 volumes (w/v) phosphate buffer, frozen with liquid nitrogen and lyophilized (Hetosicc CD 52-1, Heto, Birkerød, Denmark) . rhe lyophilized P2-pellet was stored at −20° C. For the receptor binding assays, the lyophilized P2-pellet was resuspended in Tris-HCl buffer (pH 7.4; 50 mM) with the glass-teflon Potter homogenizer (3.5 mg/inl).” left out
The filters of a MultiScreen-FB filtration plate were pre-wetted by pipetting 200 μl ice-cold Tris-HCl buffer (pH 7.4; 50 mm) into each well. […] After shaking the vials, the radioactivity was counted for 5 min in a Tri-Carb 4000 Packard scintillation counter (Canberra Packard, Groningen, The Netherlands). […]
The saturation and inhibition curves for both the radioactive labeled benzodiazepine [^3H]flunitrazepam and the fluorescent labeled benzodiazepine. […] The specific binding was calculated by subtracting the non-specific binding from the total binding. […] The Bmax value was calculated to be 3.42±0.01 nM, which corresponds to 3.84±0.09 pM/mg protein. […]

The target in assay [4] is benzodiazepine receptor. The conditions noted are these: cited from earlier work.
For assay [5], the target named is T1, benzodiazepine receptor. Briefly: Fluorescent receptor assay for benzodiazepines, calibration curves with FLB as labeled ligand. The conditions noted are these: 7.3 nM. Format: binding, calf.
The target of assay [6] is benzodiazepine receptor. The conditions noted are these: McCabe et al. [h]; cited from earlier work.
For assay [7], the system named is benzodiazepine receptor. The conditions noted are these: rat receptor material, cited from earlier work.
Assay [8] addresses benzodiazepine receptor. Briefly: Affinity for the benzodiazepine receptor, method not described. Type of assay: binding. The conditions noted are these: FIG. 1 legend.

Read-outs that look alike come from different tables or passages of the source.

The term Kd denotes the equilibrium constant for the complex coming apart. As a reminder, the Ki is the dissociation constant of the complex between target and ligand, obtained from inhibition or displacement. For Mmc-O—CO—(CH2)3-Ro15-3890 [FLB], the “non-specific binding, % of the total binding” value with benzodiazepine receptor [1] worked out at 25%. In addition, in the assay with benzodiazepine receptor [2] (FLB assay concentration 7.3 nM), the “added FLB bound to the receptors (total binding)” value came to 26%. Also, the Kd on benzodiazepine receptor [2] (saturation curve, one-binding site model, read-out: binding affinity (Kd) for the benzodiazepine receptor) was roughly 7.3 nM. Besides, the Ki at benzodiazepine receptor [3] (read-out: Ki-value, inhibition assays with [3H]flunitrazepam) stood at 6.5 nM.
As to “AMCA-didesethylflurazepam [AMCA-Ro7-1986]”, at benzodiazepine receptor [4] (from reference [b]), the Ki was 8.6 nM. Also, in the assay on benzodiazepine receptor [4] (reference [b]), the non-specific binding was 20%.
By IC50 is commonly meant the concentration needed to halve the response being measured. The low end stands for greater potency in that assay, the high end for weaker potency in that assay. At benzodiazepine receptor [5], `CN1C(=O)CN=C(c2ccccc2)c2cc(Cl)ccc21` [diazepam] had an IC50 of 41 ± 7 nM.
Regarding “fluorescein-NH—(CH2)3-Ro15-3890 [BD 621]”, at benzodiazepine receptor [6], the Kd was 63 nM.
Turning to `CCOC(=O)c1ncn2c1CN(C)C(=O)c1cc(F)ccc1-2` [[^3H]flumazenil], the Bmax with benzodiazepine receptor [7] (filtration) was 2.3 nM.
As to NBD-NH—(CH2)3-Ro15-3890 [BD 623], in the assay on benzodiazepine receptor [7] (fluorescence quenching, no bound/unbound separation), the Bmax is 7.2 nM. This molecule also registered a Ki on benzodiazepine receptor [8] of 5.7 nM.
Turning to `O=C1Nc2ccc(Cl)cc2C(c2ccccc2Cl)=NC1O` (stereo not shown) [lorazepam], the concentration for half-maximal inhibition (IC50) came out at 7.2 ± 0.5 nM against benzodiazepine receptor [5] and 6.61 ± 0.69 nM at benzodiazepine receptor [3] ([3H]flunitrazepam as labeled ligand, 2.2 nM).
